This is an account of results in PubChem BioAssay AID1259407 (Chemical Carcinogenesis Research Information System (CCRIS), 2018).

Each structure is given as a SMILES string. The source made the active and inactive calls. No rule for the calls is given here.

In this data set the test system is CCRIS mutagenicity, Ames/micronucleus/aberration tests. Kind of data set: CCRIS mutagenicity studies.
[1] abbreviates: Test System: AMES SALMONELLA TYPHIMURIUM, Strain/Indicator: TA98, Metabolic Activation: NONE, Method: PREINCUBATION
Where [2] appears, read: Test System: AMES SALMONELLA TYPHIMURIUM, Strain/Indicator: TA100, Metabolic Activation: NONE, Method: PREINCUBATION
Where [3] appears, read: Test System: AMES SALMONELLA TYPHIMURIUM, Strain/Indicator: TA1535, Metabolic Activation: NONE, Method: PREINCUBATION
Where [4] appears, read: Test System: AMES SALMONELLA TYPHIMURIUM, Strain/Indicator: TA1535, Metabolic Activation: RAT, LIVER, S-9, AROCLOR 1254 (10%), Method: PREINCUBATION
Setting [5] is: Test System: AMES SALMONELLA TYPHIMURIUM, Strain/Indicator: TA100, Metabolic Activation: NONE, Method: STANDARD PLATE.
The mark [6] stands for this setting: Test System: AMES SALMONELLA TYPHIMURIUM, Strain/Indicator: TA100, Metabolic Activation: RAT, LIVER, S-9, AROCLOR 1254, Method: STANDARD PLATE.
The mark [7] stands for this setting: Test System: AMES SALMONELLA TYPHIMURIUM, Strain/Indicator: TA98, Metabolic Activation: NONE, Method: STANDARD PLATE.
Where [8] appears, read: Test System: AMES SALMONELLA TYPHIMURIUM, Strain/Indicator: TA98, Metabolic Activation: RAT, LIVER, S-9, AROCLOR 1254, Method: STANDARD PLATE.

Take `C=CC(=O)OCCN(C)C`: the mutagenic call was “inactive; negative” (Test System: AMES SALMONELLA TYPHIMURIUM, Strain/Indicator: TA98, Metabolic Activation: HAMSTER, LIVER, S-9, AROCLOR 1254 (10%), Method: PREINCUBATION); “inactive; negative” under setting [1]; “inactive; negative” (Test System: AMES SALMONELLA TYPHIMURIUM, Strain/Indicator: TA98, Metabolic Activation: RAT, LIVER, S-9, AROCLOR 1254 (10%), Method: PREINCUBATION); “inactive; negative” (Test System: AMES SALMONELLA TYPHIMURIUM, Strain/Indicator: TA100, Metabolic Activation: HAMSTER, LIVER, S-9, AROCLOR 1254 (10%), Method: PREINCUBATION); “inactive; negative” under setting [2]; “inactive; negative” (Test System: AMES SALMONELLA TYPHIMURIUM, Strain/Indicator: TA100, Metabolic Activation: RAT, LIVER, S-9, AROCLOR 1254 (10%), Method: PREINCUBATION). The mutagenic call is, setting by setting: (Test System: AMES SALMONELLA TYPHIMURIUM, Strain/Indicator: TA1535, Metabolic Activation: HAMSTER, LIVER, S-9, AROCLOR 1254 (10%), Method: PREINCUBATION) “inactive; negative”; under setting [3], “inactive; negative”; under setting [4], “inactive; negative”; (Test System: AMES SALMONELLA TYPHIMURIUM, Strain/Indicator: TA1537, Metabolic Activation: HAMSTER, LIVER, S-9, AROCLOR 1254 (10%), Method: PREINCUBATION) “inactive; negative”; (Test System: AMES SALMONELLA TYPHIMURIUM, Strain/Indicator: TA1537, Metabolic Activation: NONE, Method: PREINCUBATION) “inactive; negative”; (Test System: AMES SALMONELLA TYPHIMURIUM, Strain/Indicator: TA1537, Metabolic Activation: RAT, LIVER, S-9, AROCLOR 1254 (10%), Method: PREINCUBATION) “inactive; negative”.
For `Nc1nc(-c2cccc([N+](=O)[O-])c2)nc2c1ncn2[C@@H]1O[C@H](CO)[C@@H](O)[C@H]1O`, the mutagenic call is, setting by setting: under setting [1], “inactive; negative”; (Test System: AMES SALMONELLA TYPHIMURIUM, Strain/Indicator: TA98, Metabolic Activation: RAT, LIVER, S-9, PCB, Method: PREINCUBATION) “inactive; negative”; under setting [2], “active; positive”; (Test System: AMES SALMONELLA TYPHIMURIUM, Strain/Indicator: TA100, Metabolic Activation: RAT, LIVER, S-9, PCB, Method: PREINCUBATION) “active; positive”.
`Nc1cc([N+](=O)[O-])cc(S(=O)(=O)O)c1O`: the mutagenic call (Test System: AMES SALMONELLA TYPHIMURIUM, Strain/Indicator: TA97, Metabolic Activation: HAMSTER, LIVER, S-9, AROCLOR 1254 (10%), Method: PREINCUBATION) was “inactive; negative”; the mutagenic call (Test System: AMES SALMONELLA TYPHIMURIUM, Strain/Indicator: TA97, Metabolic Activation: HAMSTER, LIVER, S-9, AROCLOR 1254 (30%), Method: PREINCUBATION) is “inactive; negative”; the mutagenic call (Test System: AMES SALMONELLA TYPHIMURIUM, Strain/Indicator: TA97, Metabolic Activation: NONE, Method: PREINCUBATION) was “inactive; negative”; the mutagenic call (Test System: AMES SALMONELLA TYPHIMURIUM, Strain/Indicator: TA97, Metabolic Activation: RAT, LIVER, S-9, AROCLOR 1254 (10 OR 30%), Method: PREINCUBATION) is “inactive; negative”; the mutagenic call (Test System: AMES SALMONELLA TYPHIMURIUM, Strain/Indicator: TA98, Metabolic Activation: HAMSTER, LIVER, S-9, AROCLOR 1254 (10 OR 30%), Method: PREINCUBATION) was “inactive; negative”; the mutagenic call under setting [1] is “inactive; negative”. Also, the mutagenic call is “inactive; negative” (Test System: AMES SALMONELLA TYPHIMURIUM, Strain/Indicator: TA98, Metabolic Activation: RAT, LIVER, S-9, AROCLOR 1254 (10 OR 30%), Method: PREINCUBATION); “inactive; negative” (Test System: AMES SALMONELLA TYPHIMURIUM, Strain/Indicator: TA100, Metabolic Activation: HAMSTER, LIVER, S-9, AROCLOR 1254 (10 OR 30%), Method: PREINCUBATION); “inactive; negative” under setting [2]; “inactive; negative” (Test System: AMES SALMONELLA TYPHIMURIUM, Strain/Indicator: TA100, Metabolic Activation: RAT, LIVER, S-9, AROCLOR 1254 (10 OR 30%), Method: PREINCUBATION); “inactive; negative” (Test System: AMES SALMONELLA TYPHIMURIUM, Strain/Indicator: TA1535, Metabolic Activation: HAMSTER, LIVER, S-9, AROCLOR 1254 (10 OR 30%), Method: PREINCUBATION); “inactive; negative” under setting [3]. The mutagenic call under setting [4] was “inactive; negative”.
`Nc1cc([N+](=O)[O-])cc([N+](=O)[O-])c1C(=O)O`: the mutagenic call by setting is: (End Point: In vitro chromosomal aberrations, Test System: V79 Chinese hamster fibroblasts, Metabolic Activation: None) “inactive; negative”; (End Point: In vitro micronucleus, Test System: HepG2 human hepatoma cells, Metabolic Activation: None) “active; positive”; (Test System: Ames Salmonella typhimurium, Strain/Indicator: TA98, Metabolic Activation: None, Method: Standard plate) “active; positive”; (Test System: Ames Salmonella typhimurium, Strain/Indicator: TA98, Metabolic Activation: Rat, Liver, S-9, Method: Standard plate) “active; positive”; (Test System: Ames Salmonella typhimurium, Strain/Indicator: TA98NR, Metabolic Activation: None, Method: Standard plate) “active; positive”; (Test System: Ames Salmonella typhimurium, Strain/Indicator: TA100, Metabolic Activation: None, Method: Standard plate) “inactive; negative”. For the same compound, under “Test System: Ames Salmonella typhimurium, Strain/Indicator: TA100, Metabolic Activation: Rat, Liver, S-9, Method: Standard plate”, the mutagenic call was “inactive; negative”.
Turning to `O=S(=O)(O)O.[NH-]CC1(C[NH-])CCCCC1.[Pt+2]`, the mutagenic call (Test System: CHINESE HAMSTER, Strain/Indicator: V-79/6-THIOGUANINE (HGPRT), Metabolic Activation: NONE, Method: STANDARD PLATE) was “active; positive”.
On to `C=C(Cl)CSC(=S)N(CC)CC`, for which the mutagenic call is, setting by setting: under setting [5], “inactive; negative”; (Test System: AMES SALMONELLA TYPHIMURIUM, Strain/Indicator: TA100, Metabolic Activation: RAT, LIVER, CYTOSOL, AROCLOR 1254, Method: STANDARD PLATE) “inactive; negative”; (Test System: AMES SALMONELLA TYPHIMURIUM, Strain/Indicator: TA100, Metabolic Activation: RAT, LIVER, MICROSOMES, AROCLOR 1254, Method: STANDARD PLATE) “inactive; negative”; (Test System: AMES SALMONELLA TYPHIMURIUM, Strain/Indicator: TA100, Metabolic Activation: RAT, LIVER, MICROSOMES, CYTOSOL, AROCLOR 1254, Method: STANDARD PLATE) “active; positive”; under setting [6], “active; positive”.
As to `CC(CCC(=O)O)(c1ccc(O)cc1)c1ccc(O)cc1`, the mutagenic call was “active; positive” (Test System: MOUSE LYMPHOMA, Strain/Indicator: L5178Y (TK+/TK-), Metabolic Activation: NONE, Method: SUSPENSION/PLATE) and “active; positive” (Test System: MOUSE LYMPHOMA, Strain/Indicator: L5178Y (TK+/TK-), Metabolic Activation: RAT LIVER S-9, AROCLOR, Method: SUSPENSION/PLATE).
Turning to `CCN(N=O)C(=O)N(C)C`, the mutagenic call was “active; positive” (Test System: AMES SALMONELLA TYPHIMURIUM, Strain/Indicator: TA1535, Metabolic Activation: NONE, Method: STANDARD PLATE) and “active; positive” (Test System: AMES SALMONELLA TYPHIMURIUM, Strain/Indicator: TA1535, Metabolic Activation: RAT, LIVER, S-9, BETA-NAPHTHOFLAVONE AND PHENOBARBITAL, Method: STANDARD PLATE).
For the compound `CC(=O)Nc1ccc(Sc2ccccc2)cc1`, the mutagenic call was “inactive; negative” under setting [7] and “active; positive” under setting [8].
As to `COP(=S)(OC)Oc1ccc(N=O)c(C)c1`, the mutagenic call under setting [7] was “active; positive”, the mutagenic call under setting [8] is “active; positive”, the mutagenic call under setting [5] is “active; positive” and the mutagenic call under setting [6] is “active; positive”.
For `CCc1c2ccccc2c(CC)c2c1ccc1ccccc12`, the mutagenic call by setting is: (Test System: AMES SALMONELLA TYPHIMURIUM, Strain/Indicator: TA98, Method: STANDARD PLATE) “inactive; negative”; (Test System: AMES SALMONELLA TYPHIMURIUM, Strain/Indicator: TA100, Metabolic Activation: RAT, LIVER, S-9, PHENOBARBITAL, Method: STANDARD PLATE) “inactive; negative”; (Test System: AMES SALMONELLA TYPHIMURIUM, Strain/Indicator: TA100, Method: STANDARD PLATE) “inactive; negative”.
